Reference: PubChem BioAssay AID248 (DTP/NCI, 2004)
Where “and” joins values, the source holds several entries; their conditions need not be identical. Equal entries are not always repeated. Toxic doses and inconclusive results are not listed. No stated cut-off is given here; in the data, active means T/C of 150% or more; inactive means T/C below 125%.

Tested on: L1210 leukemia ip in BDF1 mice, survival T/C
Assay: NCI In Vivo Anticancer Drug Screen. Data for tumor model L1210 Leukemia (intraperitoneal) in B6D2F1 (BDF1) mice
Conditions: endpoint: mean survival time, higher = longer survival
Summary of the method: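 Value reflects the ratio of survival in compound-treated mice to survival in vehicle-treated controls, with both groups carrying the same transplanted tumor.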

Measured: T/C

Clc1ccc(Cl)c(/C=C/c2ccc(Cl)c(Cl)c2)c1
inactive: dose: 1.56 mg/kg/injection, schedule: Q01DX009 (ip), vehicle: Klucel (hydroxypropylcellulose) (HPC) 97 % of control | dose: 3.12 mg/kg/injection, schedule: Q01DX009 (ip), vehicle: Klucel (hydroxypropylcellulose) (HPC) 95 % of control | dose: 6.25 mg/kg/injection, schedule: Q01DX009 (ip), vehicle: Klucel (hydroxypropylcellulose) (HPC) 92 % of control and 100 % of control | dose: 100.0 mg/kg/injection, schedule: Q04DX003 (ip), vehicle: Klucel (hydroxypropylcellulose) (HPC) 97 % of control

CC12CCCC(O)(C1)NC(=O)C2C#N (stereo not given)
inactive: dose: 100.0 mg/kg/injection, schedule: Q01DX001 (ip), vehicle: carboxymethylcellulose (CMC) 102 % of control | dose: 200.0 mg/kg/injection, schedule: Q01DX001 (ip), vehicle: carboxymethylcellulose (CMC) 97 % of control | dose: 400.0 mg/kg/injection, schedule: Q01DX001 (ip), vehicle: carboxymethylcellulose (CMC) 94 % of control

CN(C)C(=S)SCC(=O)O
inactive: dose: 100.0 mg/kg/injection, schedule: Q04DX002 (ip), vehicle: saline with Tween-80 100 % of control | dose: 200.0 mg/kg/injection, schedule: Q04DX002 (ip), vehicle: saline with Tween-80 96 % of control | dose: 400.0 mg/kg/injection, schedule: Q04DX002 (ip), vehicle: saline with Tween-80 100 % of control
